{"source": "patent US9751875B2", "about": "“Quinine compounds, and optical isomers, preparation method and medical use thereof” (BEIJING FSWELCOME TECHNOLOGY DEVELOPMENT CO., LTD., priority 2013, dated 2017)", "key": {"[1]": {"test_system": "bronchus in guinea pigs (contractile response induced by Mch)", "assay": "Antagonism of contractile response of bronchus in guinea pigs induced by methacholine (Mch); airway resistance and pulmonary dynamic compliance", "type": "in vivo, guinea pig", "details": "Mch 10 μg/kg iv after 30 min; for Cdyn(ml/cm H2O) / Raw (cm H2O/ml/s): Mean ± S.E.M", "description": "Determination of tidal volume, airway flow rate, and transpulmonary pressure: 1.5 g/kg of urethane was intraperitoneally injected to narcotize the guinea pig. The guinea pig was fixed supinely and treated with tracheal intubation, and the external jugular vein was separated and an indwelling needle was inserted; the guinea pig was enclosed into a body plethysmograph, a blunt needle for intubation into thoracic cavity was inserted between ribs 4˜5 of the prothorax of the guinea pig, and the intrathoracic pressure could be measured (with a negative value of a water column of a water manometer and a fluctuation with the breath of the guinea pig as marks). After stabilization, the values of the tidal volume, airway flow rate and transpulmonary pressure of the guinea pig prior to administration of Mch were recorded by a MedLab biological signal collection and processing system as base values. 10 μg/kg body weight of Mch was intravenously injected. The changes of the airway flow rate, tidal volume and transpulmonary pressure of the guinea pig within 5 minutes were observed. Calculation of Raw and Cdyn: the changes of the increased percentage of Raw value and the decreased percentage of Cdyn after […] of Mch were calculated.\nCalculation formulas of Raw and Cdyn were respectively: […]\nDose-effect relationship: For each of the example compounds, 27 guinea pigs were randomly divided into […]: a solvent control group with […], a group with 1 μg/kg of the example compounds 4, 10, 14, and 26, a group with 3 μg/kg of the example compounds 4, 10, 14, and 26 and a group with 10 μg/kg of the example compounds 4, 10, 14, and 26; after 30 min from the dropping of the above concentration of drugs in the airway, 10 μg/kg body weight of Mch was intravenously injected for excitation, and airway resistance (Raw) and pulmonary dynamic compliance (Cdyn) within 5 min were determined. […]"}, "[2]": {"test_system": "tracheal smooth muscle from guinea pigs (contraction induced by 3 × 10^−6 mol/L of CCh)", "assay": "Antagonism in vitro of contraction of isolated tracheal smooth muscle from guinea pigs induced by carbachol (CCh)", "type": "cell-based, guinea pig"}, "[3]": {"test_system": "tracheal smooth muscle from guinea pigs (contraction induced by 3 × 10^−6 mol/L of CCh)", "assay": "Antagonism in vitro of contraction of isolated tracheal smooth muscle from guinea pigs induced by carbachol (CCh)", "type": "cell-based, guinea pig", "details": "read-out: IC50 (μM), antagonism in vitro against the contraction of the tracheal smooth muscle induced by CCh; 3 × 10^−6 mol/L of CCh; cumulative dosing"}, "[4]": {"test_system": "m1, m2 and m3 subtypes of M receptor", "assay": "Competitive [3H]-QNB binding on membranes of CHO cells transfected with m1, m2, m3; selectivity on subtypes of M receptor", "details": "ratio of Ki, n = 6"}}, "data": [{"smiles": "OC(CO[C@H]1C[N+]2(CCCOc3ccccc3)CCC1CC2)(c1ccccc1)C1CCC1.[Br-]", "note": "(stereo partly drawn) [Example 14, (2S,3S)-3-[(2-cyclobutyl-2-hydroxyl-2-phenyl)ethoxyl]-1-(3-phenoxypropyl)-1-azabicyclo[2,2,2]octane bromide]", "values": [{"measurement": "inhibition ratio against the decrease of pulmonary dynamic compliance", "setting": "[1]; 1 μg/kg dropped in the airway", "result": 11.0, "unit": "%"}, {"measurement": "inhibition ratio against the increase of airway resistance", "setting": "[1]; 1 μg/kg dropped in the airway", "result": 63.5, "unit": "%"}, {"measurement": "Cdyn(ml/cm H2O)", "setting": "[1]; 1 μg/kg dropped in the airway", "result": "0.101 ± 0.010", "unit": "ml/cm H2O"}, {"measurement": "Raw (cm H2O/ml/s)", "setting": "[1]; 1 μg/kg dropped in the airway", "result": "0.719 ± 0.082", "unit": "cm H2O/ml/s"}, {"measurement": "inhibition ratio against the decrease of pulmonary dynamic compliance", "setting": "[1]; 3 μg/kg dropped in the airway", "result": 46.1, "unit": "%"}, {"measurement": "inhibition ratio against the increase of airway resistance", "setting": "[1]; 3 μg/kg dropped in the airway", "result": 85.4, "unit": "%"}, {"measurement": "Cdyn(ml/cm H2O)", "setting": "[1]; 3 μg/kg dropped in the airway", "result": "0.141 ± 0.014", "unit": "ml/cm H2O"}, {"measurement": "Raw (cm H2O/ml/s)", "setting": "[1]; 3 μg/kg dropped in the airway", "result": "0.560 ± 0.062", "unit": "cm H2O/ml/s"}, {"measurement": "inhibition ratio against the decrease of pulmonary dynamic compliance", "setting": "[1]; 10 μg/kg dropped in the airway", "result": 49.5, "unit": "%"}, {"measurement": "inhibition ratio against the increase of airway resistance", "setting": "[1]; 10 μg/kg dropped in the airway", "result": 90.5, "unit": "%"}, {"measurement": "Cdyn(ml/cm H2O)", "setting": "[1]; 10 μg/kg dropped in the airway", "result": "0.207 ± 0.018", "unit": "ml/cm H2O"}, {"measurement": "Raw (cm H2O/ml/s)", "setting": "[1]; 10 μg/kg dropped in the airway", "result": "0.504 ± 0.073", "unit": "cm H2O/ml/s"}, {"measurement": "Onset time", "setting": "[2]", "result": 6.34, "unit": "min"}, {"measurement": "Time for eliminating inhibition effect (min)", "setting": "[2]", "result": "more than 300 min"}, {"measurement": "IC50", "setting": "[3]", "result": 4.87, "unit": "µM"}, {"measurement": "Selectivity m1/m2, Mx/My = Ki(y)/Ki(x)", "setting": "[4]", "result": 25.6}, {"measurement": "Selectivity m1/m3, Mx/My = Ki(y)/Ki(x)", "setting": "[4]", "result": 0.205}, {"measurement": "Selectivity m2/m3, Mx/My = Ki(y)/Ki(x)", "setting": "[4]", "result": 0.008}]}]}
